Non-standard residues stand in square brackets, D forms with d. No end group written: not given here. hTyr = N[C@@H](CCc1ccc(O)cc1)C(=O)O; hPhe = N[C@@H](CCc1ccccc1)C(=O)O; Phg = N[C@H](C(=O)O)c1ccccc1; Ava = NCCCCC(=O)O; βAla = NCCC(=O)O
Key:
[1] = system: μ receptors, guinea pig ileum (GPI); test: guinea pig ileum (GPI) in vitro functional assay; conditions: for EC50: read-out: In Vitro Functional Assay [ED50 in μM] GPI, rhenium-complexed peptides; for EC50 / GPI functional activity class: guinea pig ileum; for GPI observed percent efficacy at 10 μM: value in brackets
[2] = target: δ receptors, mouse vas deferens (MVD) (Mus musculus, UniProt P32300); test: mouse vas deferens (MVD) in vitro functional assay; conditions: for EC50: read-out: In Vitro Functional Assay [ED50 in μM] MVD, rhenium-complexed peptides; for EC50 / MVD functional activity class: mouse vas deferens; for MVD observed percent efficacy at 10 μM: value in brackets
δ receptors, mouse vas deferens (MVD), sequence (P32300 whole entry): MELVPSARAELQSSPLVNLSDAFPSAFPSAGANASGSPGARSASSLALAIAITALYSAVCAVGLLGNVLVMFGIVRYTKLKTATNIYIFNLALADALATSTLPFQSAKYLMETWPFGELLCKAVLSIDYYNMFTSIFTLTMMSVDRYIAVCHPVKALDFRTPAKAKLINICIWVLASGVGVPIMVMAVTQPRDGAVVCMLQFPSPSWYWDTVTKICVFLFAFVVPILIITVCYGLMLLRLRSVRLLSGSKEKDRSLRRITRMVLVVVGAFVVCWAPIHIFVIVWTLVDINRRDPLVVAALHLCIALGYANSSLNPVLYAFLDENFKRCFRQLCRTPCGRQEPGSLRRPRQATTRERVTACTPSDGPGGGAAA

κ opiate receptor = κ opiate receptor (Cavia porcellus, UniProt P41144); test: κ receptor binding assay, guinea-pig brain membrane, 3H-U69593 displacement; conditions: read-out: Receptor Binding Assay [Ki in μM] Kappa Receptor
κ opiate receptor, sequence (P41144 whole entry): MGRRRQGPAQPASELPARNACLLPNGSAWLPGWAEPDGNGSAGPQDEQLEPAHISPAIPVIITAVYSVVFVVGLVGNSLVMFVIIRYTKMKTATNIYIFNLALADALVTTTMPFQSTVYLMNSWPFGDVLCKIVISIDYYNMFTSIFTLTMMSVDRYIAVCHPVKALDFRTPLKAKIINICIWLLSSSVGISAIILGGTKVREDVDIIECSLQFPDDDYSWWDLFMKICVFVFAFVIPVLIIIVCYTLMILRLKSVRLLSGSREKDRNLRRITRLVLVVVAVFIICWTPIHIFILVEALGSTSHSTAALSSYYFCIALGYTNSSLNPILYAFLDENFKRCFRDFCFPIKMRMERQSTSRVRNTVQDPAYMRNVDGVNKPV

## YG[dF]C-NH2
[1]
  EC50: > 10 µM
[2]
  EC50: > 10 µM

## Y[dA]CF-NH2
[1]; ED40 instead of ED50
  GPI [ED40]: 3.06 ± 0.29 µM
[2]
  MVD observed percent efficacy at 10 μM: 16%

## Tyr-Gly-Cys-HPhe-NH2 (YGC[hPhe]-NH2; also: rhenium complex)
[1]
  GPI functional activity class: WPA
[2]
  MVD functional activity class: WPA

## Tyr-Lys-Cys-OH
[1]
  GPI observed percent efficacy at 10 μM: 41%
[2]
  MVD observed percent efficacy at 10 μM: 48%

## YGGCF [Tyr-Gly-Gly-Cys-Phe-NH2]
[1]
  EC50: > 10 µM
[2]
  EC50: > 10 µM

## HTyr-β-Ala-Gly-Phe-D-Cys-NH2
[2]
  MVD observed percent efficacy at 10 μM: 11%

## NH2(CH2)4—CO-Phe-Asp-Cys-HTyr-NH2 ([Ava]FDC[hTyr]-NH2; also: rhenium complex)
[2]
  MVD observed percent efficacy at 10 μM: 20%

## YC[dF]G-NH2
[1]
  EC50: > 10 µM
[2]
  EC50: > 10 µM

## Tyr-β-Ala-Gly-Phe-Cys-NH2 (Y[βAla]GFC-NH2; also: rhenium complex)
[2]
  MVD observed percent efficacy at 10 μM: 22%

## HTyr-β-Ala-Gly-Phe-Cys-NH2 ([hTyr][βAla]GFC-NH2; also: rhenium complex)
[2]
  MVD observed percent efficacy at 10 μM: 30%

## Y[dK]CF
[1]
  EC50: 3.03 ± 0.43 µM

## Tyr-Ala-Cys-HPhe-NH2 (YAC[hPhe]-NH2; also: rhenium complex)
[1]
  GPI functional activity class: WPA
[2]
  MVD functional activity class: WPA

## YGCF [Tyr-Gly-Cys-Phe-NH2]
[1]
  EC50: > 10 µM
[2]
  EC50: 1.35 µM

## Tyr-Cys-Gly-Cys-NH2 (YCGC-NH2; cysteine pairing not given here; also: rhenium complex)
[1]
  GPI observed percent efficacy at 10 μM: 14%
[2]
  MVD observed percent efficacy at 10 μM: 34%

## Tyr-[dK]-Cys-OH
[1]
  GPI observed percent efficacy at 10 μM: 57%
[2]
  MVD observed percent efficacy at 10 μM: 9%

## Lys-Tyr-Cys-OH
[1]
  GPI observed percent efficacy at 10 μM: 34%
[2]
  MVD observed percent efficacy at 10 μM: 41%

## Tyr-Ala-Cys-Phg-NH2 (YAC[Phg]-NH2; also: rhenium complex)
[1]
  GPI functional activity class: WPA

## Tyr-Val-Cys-Phe-NH2 (YVCF-NH2; also: rhenium complex)
[2]; ED30 instead of ED50
  MVD [ED30]: 1.42 ± 0.21 µM

## Y[βAla]GF[dC]-NH2
[2]
  MVD observed percent efficacy at 10 μM: 30%

## (p-OH)—C6H4(CH2)2—NH—CO—CH(NH2)—(CH2)2—CO-Gly-Phe-D-Cys-NH2
[2]
  MVD observed percent efficacy at 10 μM: 9%

## Tyr-Ala-Phe-Cys-OH (YAFC-OH; also: rhenium complex)
[1]
  GPI observed percent efficacy at 10 μM: 8%
[2]
  MVD observed percent efficacy at 10 μM: 48%

## Leu-Enkephalin [reference compound]
[1]
  EC50: 0.246 µM

## Tyr-Gly-Cys-Phg-NH2 (YGC[Phg]-NH2; also: rhenium complex)
[1]
  GPI functional activity class: WPA
[2]
  MVD functional activity class: WPA

## YCGFC [Tyr-Cys-Gly-Phe-Cys-NH2]
[1]
  EC50: 0.612 µM
κ opiate receptor
  Ki: 2.1 µM

## YAGFC [Tyr-Ala-Gly-Phe-Cys-NH2]
[1]
  EC50: > 10 µM
[2]
  EC50: > 10 µM

## [dK]-Tyr-Cys-OH
[1]
  GPI observed percent efficacy at 10 μM: 28%
[2]
  MVD observed percent efficacy at 10 μM: 18%

## Tyr-Ala-Cys-Phe-NH2 (YACF-NH2; also: rhenium complex)
[1]
  GPI functional activity class: WPA
[2]
  MVD functional activity class: WPA

## Y[βAla]FGC-OH
[1]
  GPI observed percent efficacy at 10 μM: 51%
[2]
  MVD observed percent efficacy at 10 μM: 17%

From patent US6979436B2, “Opioid metallopeptide compositions and methods” (Palatin Technologies, Inc., priority 1999, dated 2005)
